Measured values as given in patent US20080131511A1, “Pharmaceutical Composition for Treatment of Tear and Salivary Fluid Drying” (Astellas Pharma, Inc., priority 2004, published 2008).

How the values were obtained:
[1] = tested on: ornithine decarboxylase (ODC) activity of parotid salivary gland; assay: Ornithine decarboxylase activity of parotid salivary gland, subcutaneous continuous administration; assay type: in vivo, mouse (male Balb/c); conditions: mice; for Glandular cell growth Salivary gland: ODC activity 10 hours after implantation
Description: (§1) Male Balb/c mice were used in the test.
The compound A was dissolved in physiological saline to a concentration of 0.625, 1.25, 2.5, 5.0, 10 or 20 mg/200 μl, and filled each pump (Alzet mini-osmotic pump 2001D, 8 μl/h, 1 day; DURECT Corporation) with about 200 μl portions It means, that is, each pump releases at a rate of 0.025, 0.05, 0.1, 0.2, 0.4 or 0.8 mg compound A/h, respectively. About 5 mm of dorsal epidermis of a mouse anesthetized with diethyl ether was incised, the osmotic pump already filled with the compound A was subcutaneously implanted, and then the skin was stitched. Secreted amounts of salivary and tear fluid and sweating were periodically measured from just before the implantation of pump until 32 hours after the administration. The ornithine decarboxylase activity was measured 10 hours after the implantation.
Pilocarpine was dissolved in physiological saline to a concentration of 0.039, 0.078, 0.16 or 0.31 mg/200 μl, or cevimeline to a concentration of 0.16, 0.31, 0.63 or 1.3 mg/200 μl, and filled the osmotic pump (Alzet mini-osmotic pump 2001 D, 8 μl/h, 1 day; DURECT Corporation) with about 200 μl portions. It means, that is, each pump releases at a rate of 0.00156, 0.00312, 0.0064 or 0.0124 mg/h (pilocarpine) or 0.0064, 0.0124, 0.0252 or 0.05 mg/h (cevimeline). About 5 mm of dorsal epidermis of a mouse anesthetized with diethyl ether was incised, the osmotic pump already filled with pilocarpine or cevimeline was subcutaneously implanted, and then the skin was stitched. Secreted amounts of salivary and tear fluid and sweating were periodically measured from just before the implantation of pump until 32 hours after the administration. The ornithine decarboxylase activity was measured 10 hours after the implantation.
Thus, it can be easily analogized that the ODC activity becomes a useful index of cell growth and function of the exocrine gland. Accordingly, the ability of each drug to activate glandular tissue was evaluated by measuring ODC activity of parotid salivary gland and extra-orbital lacrimal gland.
The amount of ^14CO2 formed from L-^14C-ornithine was used as the index of ODC activity.
A mouse anesthetized with diethyl ether was sacrificed by bleeding, and left and right parotid salivary glands and extra-orbital lacrimal glands were isolated. After removing the attached connective tissue and fat, the isolated glandular tissues homogenized in 1.5 ml of a homogenate buffer (25 mM Tris-HCl buffer (pH 7.4) containing 0.1 mM ethylenediaminetetraacetic acid, 0.4 mM pyridoxal phosphate, 5 mM dithiothreitol and 0.1% Brij 35®) using a Potter type homogenizer and then centrifuged at 4° C., 15,000 g for 30 minutes, and the supernatant was used as the enzyme fraction. Reaction of the enzyme and substrate was carried out by adding 100 μl of a substrate solution (the homogenate buffer containing 300 μM DL-ornithine and 5 μCi L-^14C-ornithine) to 900 μl of the enzyme liquid whose protein concentration had been adjusted to 2.5 mg/ml and incubating at 37° C. for 1 hour in a sealed tube, and the reaction was terminated by the addition of 100 μl of 2 M H2SO4. The ^14CO2 generated by the reaction was captured by 150 μl of 1 N NaOH soaked in a glass filter. Radioactivity of the ^14CO2 captured on the glass filter was detected using a liquid scintillation counter. The enzyme activity (pmol ^14CO2/mg protein/hour) was calculated from the measured results.
(§2) All of the test results were expressed as fold increases of the reactions of the drug-administered group versus those of the vehicle-administered group, and comparison between the drug-administered groups and the vehicle-administered group was carried out using Dunnett's t-test. P<0.05 was considered significant. Results

salivary gland = assay: Salivary fluid secretion after subcutaneous bolus administration; assay type: in vivo, mouse (male Balb/c); conditions: mice; for dose at which statistically significant acceleration of salivary fluid secretion was attained / time after administration at which secretion amount of salivary and tear fluid reached maximum: s.c. bolus; for time after administration at which secretion amount of salivary and tear fluid reached maximum: every dose
Description: as §1
The compound A was dissolved in physiological saline to a concentration of 1, 3, 10, 30 or 100 mg/5 ml, and 5 ml/kg of the drug solution was administered under the dorsal skin. Secreted amounts of salivary and tear fluid were measured just before the administration of compound A and 10, 20, 30, 40 and 50 minutes after the administration. The sweating action was measured 10 minutes after the administration. Also, the growth acceleration action was measured 6 hours after the administration.
Pilocarpine was dissolved in physiological saline to a concentration of 0.03, 0.1, 0.3, 1, 3 or 10 mg/5 ml, or cevimeline to a concentration of 0.3, 1, 3, 10, 30 or 100 mg/5 ml, and 5 ml/kg of the drug solution was administered under the dorsal skin. Secreted amounts of salivary and tear fluid were measured just before the administration of pilocarpine or cevimeline and 10, 20, 30, 40 and 50 minutes after the administration. The sweating action was measured 10 minutes after the administration. Also, the growth acceleration action was measured 6 hours after the administration.
The mouth of a mouse was wiped with a cotton ball whose weight had been measured in advance, and the incremental weight was used as the amount of salivary fluid. Also at the same time, a thread for tear fluid measurement (Zone Quick; Menicon) used on the Schirmer test was inserted into the lower eyelid conjunctival sac, and the length of colored part was measured and used as the amount of tear fluid. From the measurement results, area under the secreted amount-versus-time curve (AUC) was calculated.
as §2

[2] = 10 minutes after administration

Structure (SMILES): CC1OC2(CS1)CN1CCC2CC1 (centres unmarked) [cevimeline]
- glandular cell ODC activity acceleration action ([1]; s.c. continuous administration): not confirmed even at 1.25 mg
- Glandular cell growth Salivary gland ([1]; s.c. osmotic pump 0.63 mg (0.0252 mg/h)): 0.87 ± 0.05 fold increase vs. the solvent group
- Glandular cell growth Salivary gland ([1]; s.c. osmotic pump 1.25 (0.05 mg/h)): 0.45 ± 0.12 fold increase vs. the solvent group
- Salivary fluid (salivary gland; s.c. bolus 0.3 mg/kg, 10 minutes after administration (Table 4)): 1.2 ± 0.13 fold increase vs. the vehicle group
- Salivary fluid (salivary gland; s.c. bolus 1 mg/kg, 10 minutes after administration (Table 4)): 2.0 ± 0.22 fold increase vs. the vehicle group
- Salivary fluid (salivary gland; s.c. bolus 3 mg/kg, 10 minutes after administration (Table 4)): 2.1 ± 0.42 fold increase vs. the vehicle group
- Salivary fluid (salivary gland; s.c. bolus 10 mg/kg, 10 minutes after administration (Table 4)): 3.1 ± 0.50 fold increase vs. the vehicle group
- dose at which statistically significant acceleration of salivary fluid secretion was attained (salivary gland; [2]): 3 mg/kg
- time after administration at which secretion amount of salivary and tear fluid reached maximum (salivary gland): 10 min

Structure (SMILES): C=C1CC2(CCN(C)CC2)O[C@H]1C [compound A, (−)-(S)-2,8-dimethyl-3-methylene-1-oxa-8-azaspiro[4.5]decane]
- Glandular cell growth Salivary gland ([1]; s.c. osmotic pump 1.25 mg (0.05 mg/h)): 1.56 ± 0.33 fold increase vs. the vehicle group
- Glandular cell growth Salivary gland ([1]; s.c. osmotic pump 2.5 mg (0.1 mg/h)): 6.9 ± 2.3 fold increase vs. the vehicle group
- Glandular cell growth Salivary gland ([1]; s.c. osmotic pump 5 mg (0.2 mg/h)): 9.6 ± 1.8 fold increase vs. the vehicle group
- Glandular cell growth Salivary gland ([1]; s.c. osmotic pump 10 mg (0.4 mg/h)): 9.8 ± 2.6 fold increase vs. the vehicle group
- Salivary fluid (salivary gland; s.c. bolus 1 mg/kg, 10 minutes after administration): 1.5 ± 0.10 fold increase vs. the vehicle group
- Salivary fluid (salivary gland; s.c. bolus 3 mg/kg, 10 minutes after administration): 1.8 ± 0.13 fold increase vs. the vehicle group
- Salivary fluid (salivary gland; s.c. bolus 10 mg/kg, 10 minutes after administration): 3.3 ± 1.1 fold increase vs. the vehicle group
- dose at which statistically significant acceleration of salivary fluid secretion was attained (salivary gland; [2]): 10 mg/kg
- time after administration at which secretion amount of salivary and tear fluid reached maximum (salivary gland): 10 min

Structure (SMILES): CC[C@@H]1C(=O)OC[C@@H]1Cc1cncn1C [pilocarpine]
- Glandular cell growth Salivary gland ([1]; s.c. osmotic pump 0.16 mg (0.0064 mg/h)): 0.42 ± 0.06 fold increase vs. vehicle group
- Glandular cell growth Salivary gland ([1]; s.c. osmotic pump 0.31 mg (0.0124 mg/h)): 1.1 ± 0.20 fold increase vs. vehicle group
- Salivary fluid (salivary gland; s.c. bolus 0.03 mg/kg, 10 minutes after administration): 1.2 ± 0.15 fold increase vs. the vehicle group
- Salivary fluid (salivary gland; s.c. bolus 0.1 mg/kg, 10 minutes after administration): 1.8 ± 0.23 fold increase vs. the vehicle group
- Salivary fluid (salivary gland; s.c. bolus 0.3 mg/kg, 10 minutes after administration): 1.7 ± 0.15 fold increase vs. the vehicle group
- Salivary fluid (salivary gland; s.c. bolus 1 mg/kg, 10 minutes after administration (Table 3)): 2.0 ± 0.18 fold increase vs. the vehicle group
- dose at which statistically significant acceleration of salivary fluid secretion was attained (salivary gland; [2]): 0.1 mg/kg
- time after administration at which secretion amount of salivary and tear fluid reached maximum (salivary gland): 10 min
